Experimental data as given in publication PMC6315506 (Viruses, 2018).
pIC50: −log10 of the molar value.

Tests used:
HIV-1/H5N1 pseudovirus = experiment: organism not typed; type: cell-based, influenza A virus A/Goose/Qinghai/59/05 (H5N1); details: for inhibition at 10 µM: A549, 48 h, read-out: Inhibition HIV-1/H5N1; for Inhibition HIV/H5N1: 10 µM
HIV-1/LASV pseudovirus = experiment: microbe, parasite or virus in culture; type: cell-based; details: for inhibition at 10 µM: Human immunodeficiency virus 1, A549, 48 h, read-out: Inhibition HIV-1/LASV; for Inhibition HIV/LASV: 10 µM
HIV-1/EBOV pseudovirus [1] = details: for Inhibition HIV/EBOV: 10 µM
in vitro = details: human
HIV-1/EBOV pseudovirus [2] = experiment: organism not typed; details: A549, 48 h, read-out: Inhibition HIV-1/EBOV
HIV-1/EBOV pseudovirus [3] = experiment: microbe, parasite or virus in culture; details: Zaire ebolavirus, A549, read-out: IC50 (anti-HIV-1/EBOV)
A549 cells = details: 10 µM

Row | Compound | inhibition at 10 µM (HIV-1/H5N1 pseudovirus) [%] | inhibition at 10 µM (HIV-1/LASV pseudovirus) [%] | SI (CC50/IC50) (HIV-1/EBOV pseudovirus [1]) | CC50 (in vitro) [µM] | viability at 10 µM (in vitro) [%] | inhibition at 10 µM (HIV-1/EBOV pseudovirus [2]) [%] | pIC50 (HIV-1/EBOV pseudovirus [3]) | Inhibition HIV/H5N1 (HIV-1/H5N1 pseudovirus) [%] | Inhibition HIV/LASV (HIV-1/LASV pseudovirus) [%] | Inhibition HIV/EBOV (HIV-1/EBOV pseudovirus [1]) [%] | Cell Viability (A549 cells) [%]
1 | Brc1ccc2nc(OCc3cccc4ccccc34)c(-c3cnn(C4CCCCO4)c3)cc2c1 (stereo not drawn) [SYL1658] | 36.9 | 19.2 | 12.7 | 110 | 72.7 | 77.4 | 5.06 | – | – | – | –
2 | CN(C)Cc1ccc(-c2cc3cc(Br)ccc3nc2-n2ccnc2)cc1 [SYL1711] | 38.3 | 25.5 | 58.9 | 242 | 90.7 | 98.7 | 5.39 | – | – | – | –
3 | COc1nc2ccccc2cc1C(O)(Cc1cccc(F)c1)c1ccccc1CN(C)C (stereo not drawn) [SYL1640] | -1.97 | -15.1 | 64.3 | 190 | 97.6 | 79.1 | 5.53 | – | – | – | –
4 | COc1nc2ccccc2cc1C(c1ccccc1)C(O)(CC(=O)N(C)C)c1cccc2ccccc12 (stereo not drawn) [SYL1642] | 14.1 | 35 | 29.2 | 152 | 72.3 | 92.2 | 5.28 | – | – | – | –
5 | COC1=Nc2ccccc2C(C2(c3ccccc3)CCN(C)CC2)C1C(=O)c1ccccc1 (stereo not drawn) [SYL1660] | 3.34 | -26.6 | 71.6 | 185 | 106 | 97.5 | 5.59 | – | – | – | –
6 | CN(C)CCN1CCN(Cc2ccc(-c3cc4cc(Br)ccc4nc3OCc3cccc4ccccc34)cc2)CC1 [SYL1688] | – | – | – | – | – | – | – | 91.36 | 88.12 | 99.92 | 80.00
7 | COc1nc2ccc(Br)cc2cc1C(O)(CCc1ccccc1)c1ccccc1CN(C)C (stereo not drawn) [SYL1654] | 8.04 | 18.8 | 44.7 | 222 | 94.7 | 84.8 | 5.30 | – | – | – | –
8 | CN(C)Cc1ccc(-c2cc3cc(Br)ccc3nc2N2CCN(C)CC2)cc1 [SYL1713] | – | – | – | – | – | – | – | 97.68 | 99.40 | 99.58 | 1.24
9 | COc1nc2ccccc2cc1C(c1ccccc1)n1c(=O)n(CCCN(C)C)c2ccccc21 (stereo not drawn) [SYL1625] | – | – | – | – | – | – | – | -0.36 | 87.77 | 99.90 | 86.95
10 | CN(C)Cc1ccc(-c2cc3cc(Br)ccc3nc2OCc2ccccc2)cc1 [SYL1675] | – | – | – | – | – | – | – | 98.13 | 91.37 | 99.89 | 88.37
11 | Brc1ccc2nc(Oc3cccc4ccccc34)c(-c3ccccc3)cc2c1 [SYL1653] | – | – | – | – | – | – | – | 64.36 | 87.04 | 99.85 | 82.57
12 | CC(=NOCCN(C)C)c1cc2ccccc2nc1Oc1cccc2ccccc12 [SYL1626] | – | – | – | – | – | – | – | 44.19 | 85.39 | 99.66 | 86.91
13 | COc1nc2ccccc2cc1C(O)(Cc1cccc(F)c1)c1cccc(CN(C)C)c1 (stereo not drawn) [SYL1659] | – | – | – | – | – | – | – | 96.52 | 97.39 | 99.09 | 36.09
14 | COc1cccc(COc2nc3ccc(Br)cc3cc2-c2ccc(CN(C)C)cc2)c1 [SYL1707] | – | – | – | – | – | – | – | 95.43 | 78.74 | 99.14 | 80.79
15 | Brc1ccc2nc(OCc3cccc4ccccc34)c(-c3ccc(CNC45CC6CC(CC(C6)C4)C5)cc3)cc2c1 [SYL1683] | 21.7 | 26.3 | 80.3 | 235 | 104 | 95.7 | 5.53 | – | – | – | –
16 | COc1nc2ccccc2cc1C(O)(Cc1cccc(F)c1)c1ccccc1CN1CCOCC1 (stereo not drawn) [SYL1668] | – | – | – | – | – | – | – | 74.86 | 86.46 | 99.87 | 79.06
17 | COc1cccc(COc2nc3ccc(Br)cc3cc2-c2cccc(CN(C)C)c2)c1 [SYL1657] | 0.16 | 25.8 | 60.3 | 215 | 93.9 | 89.2 | 5.45 | – | – | – | –
18 | COc1ccc2nc(OCc3cccc4ccccc34)c(-c3ccc(CN(C)C)cc3)cc2c1 [SYL1702] | – | – | – | – | – | – | – | 87.31 | 89.93 | 99.95 | 89.90
19 | CN(C)Cc1cccc(-c2cc3ccccc3nc2Oc2cccc3ccccc23)c1 [SYL1637] | – | – | – | – | – | – | – | 97.92 | 81.65 | 99.81 | 80.11
20 | CN(C)CCC=C(c1ccccc1)c1cc2ccccc2nc1Oc1cccc2ccccc12.Cl [SYL1627] | – | – | – | – | – | – | – | 49.35 | 87.33 | 99.84 | 89.09

Row | Compound | inhibition at 10 µM (HIV-1/H5N1 pseudovirus) [%] | inhibition at 10 µM (HIV-1/LASV pseudovirus) [%] | SI (CC50/IC50) (HIV-1/EBOV pseudovirus [1]) | CC50 (in vitro) [µM] | viability at 10 µM (in vitro) [%] | inhibition at 10 µM (HIV-1/EBOV pseudovirus [2]) [%] | pIC50 (HIV-1/EBOV pseudovirus [3]) | Inhibition HIV/H5N1 (HIV-1/H5N1 pseudovirus) [%] | Inhibition HIV/LASV (HIV-1/LASV pseudovirus) [%] | Inhibition HIV/EBOV (HIV-1/EBOV pseudovirus [1]) [%] | Cell Viability (A549 cells) [%]
21 | CN(C)CCOc1nc2ccc(Br)cc2cc1-c1ccc(CN(C)C)cc1 [SYL1723] | – | – | – | – | – | – | – | 98.10 | 97.12 | 99.81 | 68.89
22 | CN(C)Cc1ccc(-c2cc3cc(Br)ccc3nc2OCc2ccc(-c3ccccc3)cc2)cc1 [SYL1690] | – | – | – | – | – | – | – | 98.15 | 86.95 | 99.85 | 80.30
23 | CN1CCN(c2ccc(-c3cc4cc(Br)ccc4nc3OCc3cccc4ccccc34)cn2)CC1 [SYL1687] | – | – | – | – | – | – | – | 31.90 | 88.94 | 99.94 | 78.11
24 | COc1nc2ccc(Br)cc2cc1C(c1ccccc1)C1(O)CCN(C)CC1 (stereo not drawn) [SYL1636] | – | – | – | – | – | – | – | 97.70 | 98.04 | 99.39 | 4.08
25 | COc1ccc2nc(OCc3cccc4ccccc34)c(-c3cccc(CN(C)C)c3)cc2c1 [SYL1667] | – | – | – | – | – | – | – | 85.49 | 85.91 | 99.94 | 83.17
26 | CN(C)Cc1ccc(-c2cc3cc(Br)ccc3nc2OCc2cccc3ccccc23)cc1F [SYL1678] | – | – | – | – | – | – | – | 93.90 | 97.25 | 99.38 | 122.25
27 | COc1cc(-c2cc3cc(Br)ccc3nc2OCc2cccc3ccccc23)ccc1CN(C)C [SYL1709] | – | – | – | – | – | – | – | 94.56 | 81.68 | 99.76 | 74.44
28 | CN1CCC(c2ccccc2)(C(O)(c2ccccc2)c2ccc3ccccc3c2)CC1 (stereo not drawn) [SYL1644] | – | – | – | – | – | – | – | 97.63 | 92.36 | 99.92 | 78.35
29 | CN(C)Cc1cccc(-c2cc3cc(Br)ccc3nc2Sc2cccc(O)c2)c1 [SYL1639] | – | – | – | – | – | – | – | 97.65 | 98.93 | 99.85 | 2.71
30 | CN1CCN(c2ccc(-c3cc4cc(Br)ccc4nc3OCc3cccc4ccccc34)cc2)CC1 [SYL1669] | – | – | – | – | – | – | – | 96.42 | 92.49 | 99.94 | 82.47
31 | CN(C)CCCC(O)(c1ccccc1)c1cc2ccccc2nc1Oc1cccc2ccccc12 (stereo not drawn) [SYL1635] | – | – | – | – | – | – | – | 97.52 | 99.31 | 99.63 | 11.15
32 | CN1CCC(c2ccccc2)(C(O)(c2ccccc2)c2ccccc2)CC1 [SYL1661] | – | – | – | – | – | – | – | 5.09 | 72.11 | 99.91 | 77.89
33 | Brc1ccc2nc(OCc3cccc4ccccc34)c(-c3ccc(Cn4ccnc4)cc3)cc2c1 [SYL1691] | – | – | – | – | – | – | – | 97.25 | 57.43 | 92.17 | 72.14
34 | CN(C)CCNc1nc2ccc(Br)cc2cc1-c1ccc(CN(C)C)cc1 [SYL1721] | – | – | – | – | – | – | – | 98.20 | 99.50 | 99.63 | 1.26
35 | CN(C)CCN1CCN(c2ccc(-c3cc4cc(Br)ccc4nc3OCc3cccc4ccccc34)cc2)CC1 [SYL1710] | – | – | – | – | – | – | – | 97.63 | 98.64 | 99.39 | 1.97
36 | CN(C)Cc1ccc(-c2cc3cc(Br)ccc3nc2OCc2ccncc2)cc1 [SYL1696] | – | – | – | – | – | – | – | 97.45 | 98.53 | 99.25 | 26.82
37 | COc1ccc(CC(O)(c2ccccc2CN(C)C)c2cc3cc(Br)ccc3nc2OC)cc1 (stereo not drawn) [SYL1655] | -17.2 | 28.9 | 49.9 | 132 | 95.3 | 90.3 | 5.58 | – | – | – | –
38 | CN1CCN(Cc2ccc(-c3cc4cc(Br)ccc4nc3OCc3cccc4ccccc34)cc2)CC1 [SYL1670] | – | – | – | – | – | – | – | 91.10 | 77.77 | 99.92 | 82.37
39 | CN(C)Cc1ccc(-c2cc3cc(Br)ccc3nc2OCc2cccc(F)c2)cc1 [SYL1715] | – | – | – | – | – | – | – | 95.43 | 76.84 | 99.61 | 84.72
